Results published in patent publication US10577308B2, “Sodium channel modulators” (The Florey Institute of Neuroscience and Mental Health, priority 2015, dated 2020).
Like-named read-outs stand apart in the source and are kept apart here.

Columns and labels:
hNav1.6 = hNav1.6 (Homo sapiens (Human), UniProt Q9UQD0); experiment: Automated patch clamp (IonWorks Quattro) block of hNav1.6 channels in CHO cells; type: cell-based
From the text: (§1) FIG. 1 depicts the voltage sequence used to measure inhibitory activity of compounds as described in Example 3. An automated patch clamp screening assay was used to measure the inhibitory effect (potency) of compounds in three conformational states of the sodium channel: (1) the tonic state (TP1); (2) the frequency-dependent (10 Hz) state (TP11) and (3) the inactivated state (TP12).
(§2) Test Protocol for Determining the Potency of Compounds on Nav1.2 and Nav1.6 Subtypes of Voltage-Gated Sodium Ion Channels Expressed in Mammalian Cells
(§3) Cell culture procedures: Chinese hamster ovary (CHO) cells were stably transfected with the cDNA sequence of either the human SCN2A or SCN8A genes to create hNav1.2 or hNav1.6 cells respectively. The cell lines were cultured in Ham's F-12 medium supplemented with 10% fetal bovine serum and antibiotics in a tissue incubator at 37° C. under a humidified air/CO2 mixture (95/5 v/v). On the day of the experiment, cells were washed twice with Hank's balanced salt solution, treated with trypsin, and resuspended in fresh culture media at a density of 4−6×10^6 cells in 20 ml. Immediately before placing in the IonWorks Quattro instrument, cells were washed in Hank's balanced salt solution to remove culture medium and re-suspended in 3 ml of Hank's balanced salt solution.
(§4) Automated patch clamp recordings of cells using the IonWorks Quattro Instrument: The assay used a 384 microwell plate, which enabled 20 compounds to be studied at four different concentrations in quadruplicate as well as allowing a vehicle control group and a positive control group using mexiletine at 8 different concentrations. Cells were added to the wells of the Population Patch Clamp planar electrode using a 48-channel pipettor in a volume of 6 μL, per well. After 5 minutes incubation at ambient temperature with compounds or vehicle, membrane currents were recorded using the patch clamp amplifier. The pulse pattern was repeated twice, before and after compound addition and peak current amplitudes were measured at three test pulses, TP1, TP11 and TP12 to measure Tonic Block, 10 Hz Frequency-dependent Block and Inactivation State Block, respectively.
(§5) Data analysis: Data acquisition and analyses were carried out using the IonWorks Quattro system operation software which uses an algorithm to correct data for leak currents. Concentration-response curves were fitted by non-linear least squares regression allowing calculation of an IC50 value (μM), being the concentration of the compound producing half-maximal inhibition.

hNav1.2 = hNav1.2 (Homo sapiens (Human), UniProt Q99250); experiment: Automated patch clamp (IonWorks Quattro) block of hNav1.2 channels in CHO cells; type: cell-based
Chain of hNav1.2 (Q99250 whole entry): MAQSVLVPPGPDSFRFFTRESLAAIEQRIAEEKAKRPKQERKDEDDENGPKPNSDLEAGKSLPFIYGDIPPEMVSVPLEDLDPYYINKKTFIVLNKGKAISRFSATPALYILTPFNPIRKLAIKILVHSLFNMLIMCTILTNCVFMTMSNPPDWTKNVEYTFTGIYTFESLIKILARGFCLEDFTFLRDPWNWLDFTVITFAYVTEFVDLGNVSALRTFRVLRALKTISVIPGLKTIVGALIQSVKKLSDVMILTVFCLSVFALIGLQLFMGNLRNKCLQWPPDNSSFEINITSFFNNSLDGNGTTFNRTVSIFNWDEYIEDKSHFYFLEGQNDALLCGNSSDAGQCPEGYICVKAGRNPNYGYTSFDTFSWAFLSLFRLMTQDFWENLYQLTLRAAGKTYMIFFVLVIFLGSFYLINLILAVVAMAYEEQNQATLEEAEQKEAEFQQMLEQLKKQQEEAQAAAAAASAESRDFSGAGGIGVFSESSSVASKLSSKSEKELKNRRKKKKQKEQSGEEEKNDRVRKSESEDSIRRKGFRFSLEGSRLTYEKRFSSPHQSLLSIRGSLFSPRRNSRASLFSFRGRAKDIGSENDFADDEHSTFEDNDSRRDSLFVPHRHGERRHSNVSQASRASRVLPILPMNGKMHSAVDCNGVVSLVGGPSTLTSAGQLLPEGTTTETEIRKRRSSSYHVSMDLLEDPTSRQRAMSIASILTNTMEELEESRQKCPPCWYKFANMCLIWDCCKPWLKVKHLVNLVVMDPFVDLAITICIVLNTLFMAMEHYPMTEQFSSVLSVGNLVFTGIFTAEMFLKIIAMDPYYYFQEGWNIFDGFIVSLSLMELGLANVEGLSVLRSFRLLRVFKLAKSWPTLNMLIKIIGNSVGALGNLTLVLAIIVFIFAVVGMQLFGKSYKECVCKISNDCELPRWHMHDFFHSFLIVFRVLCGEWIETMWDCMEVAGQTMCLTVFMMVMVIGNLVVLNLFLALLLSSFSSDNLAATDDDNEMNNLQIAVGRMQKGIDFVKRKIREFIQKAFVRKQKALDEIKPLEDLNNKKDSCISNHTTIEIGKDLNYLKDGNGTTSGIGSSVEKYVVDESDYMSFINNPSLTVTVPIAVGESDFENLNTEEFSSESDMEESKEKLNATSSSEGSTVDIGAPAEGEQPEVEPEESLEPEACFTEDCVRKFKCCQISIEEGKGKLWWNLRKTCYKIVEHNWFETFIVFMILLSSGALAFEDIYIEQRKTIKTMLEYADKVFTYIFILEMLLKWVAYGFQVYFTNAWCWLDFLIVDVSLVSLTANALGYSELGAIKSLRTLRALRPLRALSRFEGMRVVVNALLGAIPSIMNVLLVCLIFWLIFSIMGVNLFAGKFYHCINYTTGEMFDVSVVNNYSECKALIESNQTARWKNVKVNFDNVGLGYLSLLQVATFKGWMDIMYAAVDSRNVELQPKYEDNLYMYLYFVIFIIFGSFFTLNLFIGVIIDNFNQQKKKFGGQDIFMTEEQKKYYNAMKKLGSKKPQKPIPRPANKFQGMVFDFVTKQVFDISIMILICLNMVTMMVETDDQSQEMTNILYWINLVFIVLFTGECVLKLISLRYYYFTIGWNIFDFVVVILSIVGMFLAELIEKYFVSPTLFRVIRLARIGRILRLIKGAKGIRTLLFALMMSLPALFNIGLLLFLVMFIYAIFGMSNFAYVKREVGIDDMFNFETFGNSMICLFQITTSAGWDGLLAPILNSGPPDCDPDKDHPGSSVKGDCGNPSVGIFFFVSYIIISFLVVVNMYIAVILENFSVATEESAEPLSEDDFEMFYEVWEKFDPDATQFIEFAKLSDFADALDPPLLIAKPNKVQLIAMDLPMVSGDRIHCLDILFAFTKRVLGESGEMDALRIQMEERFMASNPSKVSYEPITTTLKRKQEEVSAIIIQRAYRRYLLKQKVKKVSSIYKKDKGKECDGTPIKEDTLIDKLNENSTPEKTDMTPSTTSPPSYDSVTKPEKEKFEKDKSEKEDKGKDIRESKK
From the text: as §1, §2, §3, §4, §5

[1] = 10 Hz frequency-dependent block (TP11), read-out: IC50 Nav1.6 10 Hz block
[2] = Inactivated state block (TP12), read-out: IC50 Nav1.6 Inactivated state block
[3] = Tonic block (TP1), read-out: IC50 Nav1.6 Tonic block
[4] = 10 Hz frequency-dependent block (TP11), read-out: IC50 Nav1.2 10 Hz block
[5] = Inactivated state block (TP12), read-out: IC50 Nav1.2 Inactivated state block
[6] = Tonic block (TP1), read-out: IC50 Nav1.2 Tonic block

Chain of hNav1.6 (Q9UQD0 whole entry): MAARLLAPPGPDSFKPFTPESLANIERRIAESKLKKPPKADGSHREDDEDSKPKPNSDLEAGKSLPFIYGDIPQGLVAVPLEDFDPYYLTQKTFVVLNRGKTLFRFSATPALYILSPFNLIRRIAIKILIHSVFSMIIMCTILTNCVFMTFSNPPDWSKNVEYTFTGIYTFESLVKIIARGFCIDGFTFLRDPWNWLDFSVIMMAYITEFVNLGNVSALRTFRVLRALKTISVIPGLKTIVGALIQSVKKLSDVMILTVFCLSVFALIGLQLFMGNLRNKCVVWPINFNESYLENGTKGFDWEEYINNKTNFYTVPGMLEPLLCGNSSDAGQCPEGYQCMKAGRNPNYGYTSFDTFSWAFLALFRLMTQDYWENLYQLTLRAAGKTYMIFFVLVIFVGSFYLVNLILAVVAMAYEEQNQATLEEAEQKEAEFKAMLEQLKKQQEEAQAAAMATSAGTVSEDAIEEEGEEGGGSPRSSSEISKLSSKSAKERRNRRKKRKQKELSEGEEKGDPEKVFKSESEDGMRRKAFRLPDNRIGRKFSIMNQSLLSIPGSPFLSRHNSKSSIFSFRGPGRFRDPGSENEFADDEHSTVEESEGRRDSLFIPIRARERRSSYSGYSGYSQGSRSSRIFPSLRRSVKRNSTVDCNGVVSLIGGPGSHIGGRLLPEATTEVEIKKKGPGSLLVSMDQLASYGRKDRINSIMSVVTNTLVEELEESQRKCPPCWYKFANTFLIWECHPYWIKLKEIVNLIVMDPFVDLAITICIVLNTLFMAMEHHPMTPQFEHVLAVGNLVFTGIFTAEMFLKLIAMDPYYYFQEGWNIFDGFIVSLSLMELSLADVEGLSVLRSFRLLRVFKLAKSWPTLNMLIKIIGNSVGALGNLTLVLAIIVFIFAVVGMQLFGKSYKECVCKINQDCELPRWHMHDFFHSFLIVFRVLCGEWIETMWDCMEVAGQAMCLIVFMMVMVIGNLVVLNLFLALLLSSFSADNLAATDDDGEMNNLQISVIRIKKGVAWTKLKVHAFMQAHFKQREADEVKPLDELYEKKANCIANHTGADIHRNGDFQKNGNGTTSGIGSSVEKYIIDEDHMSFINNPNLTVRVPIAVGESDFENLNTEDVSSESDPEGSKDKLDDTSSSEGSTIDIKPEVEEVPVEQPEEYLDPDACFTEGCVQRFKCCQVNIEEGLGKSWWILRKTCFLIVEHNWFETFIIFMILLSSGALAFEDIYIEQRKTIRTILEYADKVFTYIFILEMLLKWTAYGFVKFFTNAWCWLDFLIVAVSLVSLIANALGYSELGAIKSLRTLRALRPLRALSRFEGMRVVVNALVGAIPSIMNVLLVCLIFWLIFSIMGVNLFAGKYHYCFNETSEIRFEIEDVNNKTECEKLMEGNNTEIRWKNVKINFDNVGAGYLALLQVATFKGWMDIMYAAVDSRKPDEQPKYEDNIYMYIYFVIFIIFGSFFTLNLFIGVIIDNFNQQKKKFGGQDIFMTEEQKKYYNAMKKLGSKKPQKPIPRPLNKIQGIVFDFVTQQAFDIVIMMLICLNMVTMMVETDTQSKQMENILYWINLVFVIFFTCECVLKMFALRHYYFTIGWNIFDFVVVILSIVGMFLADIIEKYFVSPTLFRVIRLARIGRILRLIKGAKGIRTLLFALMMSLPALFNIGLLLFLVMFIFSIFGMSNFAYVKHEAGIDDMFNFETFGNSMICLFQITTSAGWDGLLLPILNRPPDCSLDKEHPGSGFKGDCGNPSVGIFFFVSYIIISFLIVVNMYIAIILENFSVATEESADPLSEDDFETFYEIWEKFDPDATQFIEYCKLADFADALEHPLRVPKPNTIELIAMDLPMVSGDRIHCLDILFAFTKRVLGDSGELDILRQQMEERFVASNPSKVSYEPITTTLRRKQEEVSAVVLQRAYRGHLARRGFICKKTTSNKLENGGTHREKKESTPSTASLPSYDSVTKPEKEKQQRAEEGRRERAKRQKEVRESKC

| Compound | IC50 (hNav1.6; [1]) [µM] | IC50 (hNav1.6; [2]) [µM] | IC50 (hNav1.6; [3]) [µM] | IC50 (hNav1.2; [4]) [µM] | IC50 (hNav1.2; [5]) [µM] | IC50 (hNav1.2; [6]) [µM] |
| --- | --- | --- | --- | --- | --- | --- |
| Cc1cccc(C)c1OCCCNCc1ccc(F)cc1 [Compound 521, 3-(2,6-Dimethylphenoxy)-N-(4-fluorobenzyl)propan-1-amine] | 2.2 | 1.4 | 4.5 | 8.4 | 2.8 | ~10.2 |
| Cc1cccc(C)c1OCCCNCc1ccc(OC(F)(F)F)cc1 [Compound 531, 3-(2,6-Dimethylphenoxy)-N-(4-(trifluoromethoxy)benzyl)propan-1-amine] | 56.3 | 40.9 | 138 | 3.6 | 1.4 | 12.5 |
| COc1cccc(CNCCCOc2c(C)cccc2C)c1 [Compound 525, 3-(2,6-Dimethylphenoxy)-N-(3-methoxybenzyl)propan-1-amine] | 3.2 | 1.8 | 7.9 | 1.5 | 0.4 | 4.8 |
| Cc1cccc(C)c1OCCCNCc1cccc(-c2ccc(F)cc2)c1 [Compound 557, 3-(2,6-Dimethylphenoxy)-N-((4′-fluorobiphenyl-3-yl)methyl)propan-1-amine] | > 30 | > 30 | > 30 | 9.3 | 3.2 | > 30 |
| Cc1cccc(C)c1OCCCNCc1ccc(C#N)cc1 [Compound 519, 4-((3-(2,6-Dimethylphenoxy)propylamino)methyl)benzonitrile] | 3.4 | 1.8 | 5.6 | 8.3 | 2.1 | > 10 |
| Cc1cccc(C)c1OCCCNCc1c2ccccc2nn1Cc1ccccc1 [Compound 555, N-((2-Benzyl-2H-indazol-3-yl)methyl)-3-(2,6-dimethylphenoxy)propan-1-amine] | > 10 | 3.7 | > 10 | > 10 | 9.3 | > 10 |
| Cc1cccc(C)c1OCCCNCc1noc(C(C)C)n1 [Compound 538, 3-(2,6-Dimethylphenoxy)-N-((5-isopropyl-1,2,4-oxadiazol-3-yl)methyl)propan-1-amine] | > 10 | > 10 | > 10 | > 10 | ~10.2 | > 10 |
| Cc1cccc(C)c1OCCCNCc1ccc(C(F)(F)F)cc1 [Compound 526] | 4.7 | 2.3 | 6.9 | 9.5 | 3.5 | > 10 |
| 3-((3-(2,6-Dimethylphenoxy)propylamino)methyl)benzonitrile [Compound 524] | 3.9 | > 10 | 7.8 | 9.6 | > 10 | > 10 |
| Cc1cccc(C)c1OCCCNCc1cccc(-c2ccccc2F)c1 [Compound 556, 3-(2,6-Dimethylphenoxy)-N-((2′-fluorobiphenyl-3-yl)methyl)propan-1-amine] | > 30 | 8 | > 30 | 4.5 | 2.1 | > 30 |
| Cc1cccc(C)c1OCCCNCc1ccc(S(N)(=O)=O)cc1 [Compound 532, 4-((3-(2,6-Dimethylphenoxy)propylamino)methyl)benzenesulfonamide] | > 10 | 8.5 | > 10 | > 10 | 6.1 | > 10 |
| Cc1cccc(C)c1OCCCNCc1ccccc1C(F)(F)F [Compound 534, 3-(2,6-Dimethylphenoxy)-N-(2-(trifluoromethyl)benzyl)propan-1-amine] | 4.1 | 2.3 | 8.1 | 7.1 | 2.1 | > 10 |
| Cc1cccc(C)c1OCCCNCc1ccccc1F [Compound 551, 3-(2,6-Dimethylphenoxy)-N-(2-fluorobenzyl)propan-1-amine] | 2 | 1.1 | 5.6 | 4.9 | 2.1 | ~10.1 |
| Cc1n[nH]c(C)c1OCCCNCc1cccc(-c2cncnc2)c1 [Compound 643, 3-(3,5-Dimethyl-1H-pyrazol-4-yloxy)-N-(3-(pyrimidin-5-yl)benzyl)propan-1-amine] | > 10 | > 10 | > 10 | > 10 | > 10 | > 10 |
| Cc1nn(C)c(C)c1OCCCNCc1cccc(-c2cncnc2)c1 [Compound 645, N-(3-(Pyrimidin-5-yl)benzyl)-3-(1,3,5-trimethyl-1H-pyrazol-4-yloxy)propan-1-amine] | > 10 | > 10 | > 10 | > 10 | > 10 | > 10 |
| Cc1cccc(C)c1OCCCNCc1cc(C(C)(C)C)cc(C(C)(C)C)c1 [Compound 559, N-(3,5-Di-tert-butylbenzyl)-3-(2,6-dimethylphenoxy)propan-1-amine] | > 10 | > 10 | > 10 | > 10 | > 10 | > 10 |
| Cc1cccc(C)c1OCCCNCc1ccc(O)cc1 [Compound 550, 4-((3-(2,6-Dimethylphenoxy)propylamino)methyl)phenol] | 4.8 | 2.2 | > 10 | 5.1 | 2.2 | > 10 |
| Cc1cccc(C)c1OCCCNCc1cccc(F)c1 [Compound 552, 3-(2,6-Dimethylphenoxy)-N-(3-fluorobenzyl)propan-1-amine] | 1.9 | 1.2 | 3.1 | 8.1 | 2.4 | 9.5 |
| Cc1n[nH]c(C)c1OCCCNC(c1ccccn1)c1ccccn1 [Compound 642, 3-(3,5-Dimethyl-1H-pyrazol-4-yloxy)-N-(dipyridin-2-ylmethyl)propan-1-amine] | > 10 | > 10 | > 10 | > 10 | > 10 | > 10 |
| COc1ccccc1CNCCCOc1c(C)cccc1C [Compound 530, 3-(2,6-Dimethylphenoxy)-N-(2-methoxybenzyl)propan-1-amine] | 1.7 | 0.8 | 2.9 | 2.9 | 1.1 | 7.8 |
| COc1ccc(CNCCCOc2c(C)cccc2C)cc1 [Compound 520, 3-(2,6-Dimethylphenoxy)-N-(4-methoxybenzyl)propan-1-amine] | 2.6 | 1.5 | 4.9 | 2.1 | 1 | 6.3 |
| Cc1cccc(C)c1OCCCNC(c1ccccn1)c1ccccn1 [Compound 562, 3-(2,6-Dimethylphenoxy)-N-(dipyridin-2-ylmethyl)propan-1-amine] | 1.3 | 0.1 | > 30 | 1.2 | 0.1 | > 30 |
| Cc1cccc(C)c1OCCCNCc1ccc(-c2ccccc2)cc1 [Compound 522, N-(Biphenyl-4-ylmethyl)-3-(2,6-dimethylphenoxy)propan-1-amine] | > 1000 | > 1000 | > 1000 | > 1000 | > 1000 | > 1000 |
| Cc1cccc(C)c1OCCCNCc1cccnc1 [Compound 528, 3-(2,6-Dimethylphenoxy)-N-(pyridin-3-ylmethyl)propan-1-amine] | 12.4 | 4.7 | 31.7 | 13.1 | 4.8 | 34.4 |
| Cc1cccc(C)c1OCCCNCc1cccc(-c2cncnc2)c1 [Compound 558, 3-(2,6-Dimethylphenoxy)-N-(3-(pyrimidin-5-yl)benzyl)propan-1-amine] | 0.4 | 0.3 | 0.4 | 0.6 | 0.2 | 1.2 |
| Cc1cccc(C)c1OCCCNCc1cc(Cl)c(O)c(Cl)c1 [Compound 504, 2,6-Dichloro-4-((3-(2,6-dimethylphenoxy)propylamino)methyl)phenol] | > 10 | > 10 | > 10 | > 10 | 4.4 | > 10 |
